Source: PMC5732040 (Cellular signalling, 2017)
Structures can show the parent of a compound that is named as a salt. Where two headings read alike, the source gives them in different places.

Columns and labels:
[1] = test system: TNF-α production by LPS-stimulated splenic monocytes; assay: Cytokine assay: LPS-stimulated TNF-α production by splenic monocytes; format: cell-based, mouse; details: for inhibition of TNF-α production: CGS 21680 alone; for inhibition at 30 µM / inhibition at 100 µM: Mus musculus, Monocyte, 4 h
[2] = test system: CCL3 production by LPS-stimulated splenic monocytes; assay: Cytokine assay: LPS-stimulated CCL3 production by splenic monocytes; format: cell-based, mouse; details: A2AR intact and deficient monocytes, absence of ADA
[3] = test system: CCL4 production by LPS-stimulated splenic monocytes; assay: Cytokine assay: LPS-stimulated CCL4 production by splenic monocytes; format: cell-based, mouse; details: absence of ADA, single agents
[4] = cited from earlier work
human A2AR [5] = molecular target: T1, human A2AR (Homo sapiens, UniProt P29274); assay: Cell-based cAMP assay in CHO-hA2AR cells; details: 10 min
human A2AR [6] = molecular target: T1, human A2AR; assay: ERK1/2 phosphorylation assay in CHO-hA2AR cells; details: inosine 1000 μM, AEA061 10 μM, 10 min
hA2AR = hA2AR (Homo sapiens, UniProt P29274); assay: Cell-free membrane-based cAMP assay; format: biochemical; details: HEK293-hA2AR cytosol-free membrane preparations, ADA 3 U/ml, 30 min, NBMPR 0–300 μM
Chain of hA2AR (P29274 whole entry): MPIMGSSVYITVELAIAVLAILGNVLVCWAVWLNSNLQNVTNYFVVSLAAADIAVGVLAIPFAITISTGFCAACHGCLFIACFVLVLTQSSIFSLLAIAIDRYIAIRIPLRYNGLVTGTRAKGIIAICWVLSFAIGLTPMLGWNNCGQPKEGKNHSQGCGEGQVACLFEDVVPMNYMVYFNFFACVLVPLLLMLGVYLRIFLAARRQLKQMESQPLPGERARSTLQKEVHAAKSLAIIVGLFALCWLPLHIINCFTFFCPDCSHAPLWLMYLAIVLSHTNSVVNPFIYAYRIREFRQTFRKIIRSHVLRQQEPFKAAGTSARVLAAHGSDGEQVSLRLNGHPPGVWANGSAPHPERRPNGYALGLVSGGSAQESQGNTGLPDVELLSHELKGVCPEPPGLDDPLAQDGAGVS

T1 sequence (P29274 whole entry): as above

For `CCNC(=O)[C@H]1O[C@@H](n2cnc3c(N)nc(NCCc4ccc(CCC(=O)O)cc4)nc32)[C@H](O)[C@@H]1O` [CGS 21680, 4-[2-[[6-Amino-9-(N-ethyl-β-D-ribofuranuronamidosyl)-9H-purin-2-yl]amino]ethyl] benzenepropanoic acid hydrochloride], the “inhibition of TNF-α production” value ([1]; LPS-stimulated A2AR deficient monocytes, absence of ADA) was 6.7% and the “inhibition of TNF-α production” value ([1]; LPS-stimulated A2AR-intact monocytes, absence of ADA) was 39%.
With `OC[C@H]1O[C@@H](n2cnc3c(O)ncnc32)[C@H](O)[C@@H]1O` [inosine] the “inhibition of TNF-α production as single agent” value ([1]; LPS-stimulated A2AR intact monocytes, absence of ADA) was “dose-dependently inhibited TNF-α production”, the inhibition at 30 µM ([1]; read-out: inhibition of LPS-stimulated TNF-α production, A2AR deficient monocytes, absence of ADA, 30 μM, 4 h) was 5.2 ± 1.3% and the inhibition at 100 µM ([1]; read-out: inhibition of LPS-stimulated TNF-α production, A2AR deficient monocytes, absence of ADA, 100 μM, 4 h) was 16.3 ± 0.7%. It also gave an inhibition at 30 µM ([1]; read-out: inhibition of LPS-stimulated TNF-α production, A2AR deficient monocytes, presence of ADA 3 U/ml, 30 μM, 4 h) of 5.2 ± 2.2%, an inhibition at 100 µM ([1]; read-out: inhibition of LPS-stimulated TNF-α production, A2AR deficient monocytes, presence of ADA 3 U/ml, 100 μM, 4 h) of 12.4 ± 1.2% and an inhibition at 30 µM ([1]; read-out: inhibition of LPS-stimulated TNF-α production, A2AR intact monocytes, absence of ADA, 30 μM, 4 h) of 18.6 ± 3.7%. For the same compound, the inhibition at 100 µM ([1]; read-out: inhibition of LPS-stimulated TNF-α production, A2AR intact monocytes, absence of ADA, 100 μM, 4 h) was 30.1 ± 1.3%, the inhibition at 30 µM ([1]; read-out: inhibition of LPS-stimulated TNF-α production, A2AR intact monocytes, presence of ADA 3 U/ml, 30 μM, 4 h) was 13.2 ± 1.9% and the inhibition at 100 µM ([1]; read-out: inhibition of LPS-stimulated TNF-α production, A2AR intact monocytes, presence of ADA 3 U/ml, 100 μM, 4 h) was 16.8 ± 1.6%. The “inhibition of CCL3 production” value [2] was “closely resembles that of TNF-α”, the “inhibition of CCL4 production” value [3] was “individually inhibited CCL4 production” and the half-life [4] was 15 h. For the same compound, the cAMP production (human A2AR [5]; in the presence of ADA 3 U/ml) was “increased cAMP production” and the ERK1/2 phosphorylation (human A2AR [6]) was “increased ERK1/2 phosphorylation”.
With `O=[N+]([O-])c1ccc(CSc2ncnc3c2ncn3[C@@H]2O[C@H](CO)[C@@H](O)[C@H]2O)cc1` [NBMPR, 6-S-[(4-Nitrophenyl)methyl]-6-thioinosine] the cAMP production (hA2AR) was “dose-dependently increased cAMP production” and the cAMP production (human A2AR [5]; without ADA) was “activated A2AR-mediated cAMP production”.
